How the values were obtained:
barnyardgrass = assay: Test A pre-/postemergence herbicide test; type: in vivo, Echinochloa crus-galli; conditions: 1000 g ai/ha
In short: (§1)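 Both application timings used compounds in a non-phytotoxic solvent plus surfactant. Pre-emergence: soil sprayed directly after seeding into loam/sand. Post-emergence: foliage of 2–10 cm seedlings (1–2 leaves) sprayed. Injury rated ~10 days later, 0–100.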

pigweed = assay: Test A pre-/postemergence herbicide test; type: in vivo, Amaranthus retroflexus; conditions: 1000 g ai/ha
In short: as §1

corn [1] = assay: Test A pre-/postemergence herbicide test; type: in vivo, Zea mays; conditions: 1000 g ai/ha
In short: as §1

sedge, umbrella = assay: Test B flooded paddy test; type: in vivo, Cyperus difformis; conditions: 250 g ai/ha, Flood; scale of 0 to 100 where 0 is no effect and 100 is complete control
In short: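 Scored visually 0–100 (0 no effect, 100 complete control) versus controls after 13 to 15 greenhouse days. Treatment: compound added to paddy water kept 3 cm above soil, on 2-leaf-stage plants.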

ryegrass, Italian = assay: Test C pre-/postemergence herbicide test; type: in vivo, Lolium multiflorum; conditions: Preemergence
In short: (§2)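 Herbicidal effect was judged by eye 13 to 15 days after treatment in the greenhouse, using a 0–100 scale against controls. Chemicals in a non-phytotoxic solvent with surfactant were sprayed onto planted loam/sand soil or onto plants 2 to 18 cm tall in a peat-based growing medium.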

galium = assay: Test C pre-/postemergence herbicide test; type: in vivo, Galium aparine; conditions: Preemergence
In short: as §2

corn [2] = assay: Test C pre-/postemergence herbicide test; type: in vivo, Zea mays; conditions: Preemergence
In short: as §2

foxtail, giant = assay: Test C pre-/postemergence herbicide test; type: in vivo, Setaria faberii; conditions: Preemergence
In short: as §2

ragweed = assay: Test C pre-/postemergence herbicide test; type: in vivo, Ambrosia elatior; conditions: Preemergence
In short: as §2

soybean = assay: Test C pre-/postemergence herbicide test; type: in vivo, Glycine max; conditions: Preemergence, 125 g ai/ha; scale 0 to 100 (0 no effect, 100 complete control)
In short: as §2

oat, wild = assay: Test C pre-/postemergence herbicide test; type: in vivo, Avena fatua; conditions: Preemergence
Source text: Seeds of plant species selected from blackgrass (Alopecurus myosuroides), ryegrass, Italian (Italian ryegrass, Lolium multiflorum), wheat (winter wheat, Triticum aestivum), galium (catchweed bedstraw, Galium aparine), corn (Zea mays), crabgrass, large (large crabgrass, Digitaria sanguinalis), foxtail, giant (giant foxtail, Setaria faberii), johnsongrass (Sorghum halepense), lambsquarters (Chenopodium album), morningglory (Ipomoea coccinea), nutsedge, yellow (yellow nutsedge, Cyperus esculentus), pigweed (Amaranthus retroflexus), ragweed (common ragweed, Ambrosia elatior), soybean (Glycine max), barnyardgrass (Echinochloa crus-galli), oilseed rape (Brassica napus), waterhemp (common waterhemp, Amaranthus rudis), kochia (Kochia scoparia), oat, wild (wild oat, Avena fatua), surinam grass (Brachiaria decumbens), foxtail, green (green foxtail, Setaria viridis), goosegrass (Eleusine indica), bromegrass, downy (downy bromegrass, Bromus tectorum), nightshade (eastern black nightshade, Solanum ptycanthum), cocklebur (common cocklebur, Xanthium strumarium), cupgrass, woolly (woolly cupgrass, Eriochloa villosa), bermudagrass (Cynodon dactylon), sunflower, (common oilseed sunflower, Helianthus annuus), Russian thistle (Salsola kali) and velvetleaf (Abutilon theophrasti) were planted into a blend of loam soil and sand and treated preemergence with test chemicals formulated in a non-phytotoxic solvent mixture which included a surfactant. At the same time, plants selected from these crop and weed species and also barley (winter barley, Hordeum vulgare), […]), chickweed (common chickweed, Stellaria media), deadnettle (henbit deadnettle, Lamium amplexicaule), and canarygrass (littleseed canarygrass, Phalaris minor) were planted in pots containing Redi-Earth® planting medium (Scotts Company, 14111 Scottslawn Road, Marysville, Ohio 43041) comprising spaghnum peat moss, vermiculite, wetting agent and starter nutrients and treated with postemergence applications of test chemicals formulated in the same manner. Plants ranged in height from 2 to 18 cm (1- to 4-leaf stage) for postemergence treatments. Treated plants and controls were maintained in a greenhouse for 13 to 15 days, after which time all species were compared to controls and visually evaluated. Plant response ratings, summarized in Table C, are based on a scale of 0 to 100 where 0 is no effect and 100 is complete control. A dash (-) response means no test result.

[3] = Postemergence, 0 to 100 scale (0 no effect, 100 complete control)
[4] = Preemergence, visual rating on 0 to 100 scale (0 no effect, 100 complete control), approx. 10 days
[5] = 125 g ai/ha, scale 0 to 100 (0 no effect, 100 complete control)
[6] = 31 g ai/ha, scale 0 to 100 (0 no effect, 100 complete control)
[7] = 250 g ai/ha, scale 0 to 100 (0 no effect, 100 complete control)

O=C1NCC(c2cc(F)c(F)c(F)c2)C1C(=O)Nc1ccccc1C(F)(F)F (racemic) [Compound 33]
Plant response rating, Barnyardgrass (barnyardgrass; [3]): 90 | Plant response rating, Barnyardgrass (barnyardgrass; [4]): 90 | Plant response rating, Pigweed (pigweed; [3]): 0 | Plant response rating, Pigweed (pigweed; [4]): 0 | Plant response rating, Corn (corn [1]; [3]): 40 | Plant response rating, Corn (corn [1]; [4]): 0 | Plant response rating, Sedge, Umbrella (sedge, umbrella): 0 | Plant response rating, Ryegrass, Italian (ryegrass, Italian; 62 g ai/ha, scale 0 to 100): 0 | Plant response rating, Ryegrass, Italian (ryegrass, Italian; [5]): 0 | Galium plant response rating (galium; [6]): 0 | Plant response rating, Galium (galium; 62 g ai/ha, scale 0 to 100): 0 | Plant response rating, Galium (galium; [5]): 60 | Plant response rating, Galium (galium; [7]): 90 | Corn plant response rating (corn [2]; [6]): 0 | Plant response rating, Corn (corn [2]; 62 g ai/ha, scale 0 to 100): 10 | Plant response rating, Corn (corn [2]; [5]): 20 | Plant response rating, Corn (corn [2]; [7]): 30 | Foxtail, Giant plant response rating (foxtail, giant; [6]): 75 | Plant response rating, Foxtail, Giant (foxtail, giant; 62 g ai/ha, scale 0 to 100): 95 | Plant response rating, Foxtail, Giant (foxtail, giant; [5]): 98 | Plant response rating, Foxtail, Giant (foxtail, giant; [7]): 98 | Plant response rating, Ragweed (ragweed; 62 g ai/ha, scale 0 to 100): 0 | Plant response rating, Ragweed (ragweed; [5]): 0 | Plant response rating, Soybean (soybean): 0 | Plant response rating, Oat, Wild (oat, wild; 62 g ai/ha, scale 0 to 100): 0 | Plant response rating, Oat, Wild (oat, wild; [5]): 20

Reference: patent US10294202B2, “Pyrrolidinones as herbicides” (FMC Corporation, priority 2013, dated 2019)
